Assay results reported in patent US20240208961A1, “EIF4E INHIBITORS AND USES THEREOF” (PIC Therapeutics, Inc., priority 2022, published 2024).
Several values for one entry are separate records, joined by “and”; a condition that tells them apart may be missing. Equal entries are not always repeated. Where two headings read alike, the source gives them in different places.

Test: Pharmacokinetic studies of certain compounds in female Balb/c mice (Example 5)
Type: in vivo
Settings: I-1 PO 30 mg/kg
Protocol: Pharmacokinetic studies were performed using Balb/c mice, 15-20 g, 6-9 weeks, female, N=9, purchased from Jihui Laboratory Animal Co. LTD. For compound I-29, Balb/c mice, 19-21 g, 9-11 weeks, female, N=9, were used. The mice were fasted overnight and fed at 4 h post dosing.
Animals were dosed via oral gavage (PO) or tail vein injection (IV) with compound. Sampling occurred at 0.083, 0.25, 0.5, 1, 2, 4, 8, and 24 h post dose (8 time points). The animals were restrained manually at the designated time points. Approx. […] of blood was taken from the animals via facial vein for semi-serial bleeding into tubes with K2EDTA. Blood samples were put on ice and centrifuged at 4° C. (2000 g, 5 min) to obtain plasma within 15 min after sample collection. Plasma samples were stored in dry ice temporarily and at approximately −70° C. until analysis.
For oral gavage, the compound was dosed as a suspension in 1% sodium carboxymethyl cellulose (CMC) and 0.2% Tween 80 in water. For 23.8 mg/kg and 30 mg/kg doses, 3 mg/mL was used; for 50 mg/kg doses, 5 mg/mL was used; and for 100 mg/kg doses, 10 mg/mL was used.
For IV administration, the compound was dosed as a solution in 5% DMSO, 5% Solutol HS15 and 90% saline. For 1 mg/kg and 1.48 mg/kg doses, 0.2 mg/mL was used.
Plasma samples were analyzed using LC-MS using a calibration curve of known concentrations.
The results of these studies are summarized in Tables 11-21 below and in FIGS. 2-8. […] BQL=below quantifiable limit for compound in female Balb/c mouse plasma samples. NA=not available. PK parameters were estimated by non-compartmental model using WinNonlin 8.2. If the adjusted rsq (linear regression coefficient of the concentration value on the terminal phase) was less than 0.9, T1/2 might not have been accurately estimated. F value was determined by the following equation: • If AUClast/AUCINF>80%:
F=(AUCINF-EX×DOSEIV)/(AUCINF-IV×DOSEEX)[…] • If AUClast/AUCINF<80% or AUCINF not available:
F=(AUClast-EX×DOSEIV)/(AUClast-IV×DOSEEX)*1000

[1] = 24 hr, BQL = below quantifiable limit of 1 ng/mL

Plasma concentration Individual (0.083 hr, 30 mg/kg): 96.9 ng/mL and 51.8 ng/mL and 106 ng/mL | Plasma concentration Individual (0.25 hr, 30 mg/kg): 467 ng/mL and 432 ng/mL | Plasma concentration Individual (0.5 hr, 30 mg/kg): 464 ng/mL and 421 ng/mL | Plasma concentration Individual (1 hr, 30 mg/kg): 592 ng/mL and 498 ng/mL | Plasma concentration Individual (2 hr, 30 mg/kg): 367 ng/mL and 222 ng/mL | Plasma concentration Individual (4 hr, 30 mg/kg): 130 ng/mL and 153 ng/mL | Plasma concentration Individual (8 hr, 30 mg/kg): 78.9 ng/mL and 6.72 ng/mL and 12.2 ng/mL | Plasma concentration Individual [1]: BQL | Plasma concentration Mean [1]: BQL | concentration at 0.083 hr (female, Balb/c, mouse, plasma, po, 30 mg/kg, 0.083 hr, read-out: Plasma concentration Mean): 84.9 ng/mL | concentration at 0.25 hr (female, Balb/c, mouse, plasma, po, 30 mg/kg, 0.25 hr, read-out: Plasma concentration Individual): 383 ng/mL | concentration at 0.25 hr (female, Balb/c, mouse, plasma, po, 30 mg/kg, 0.25 hr, read-out: Plasma concentration Mean): 427 ng/mL | concentration at 0.5 h (female, Balb/c, mouse, plasma, po, 30 mg/kg, 0.5 hr, read-out: Plasma concentration Individual): 397 ng/mL | concentration at 0.5 h (female, Balb/c, mouse, plasma, po, 30 mg/kg, 0.5 hr, read-out: Plasma concentration Mean): 427 ng/mL | concentration at 1 h (female, Balb/c, mouse, plasma, po, 30 mg/kg, 1 hr, read-out: Plasma concentration Individual): 320 ng/mL | concentration at 1 hr (female, Balb/c, mouse, plasma, po, 30 mg/kg, 1 hr, read-out: Plasma concentration Mean): 470 ng/mL | concentration at 2 hr (female, Balb/c, mouse, plasma, po, 30 mg/kg, 2 hr, read-out: Plasma concentration Individual): 376 ng/mL | concentration at 2 hr (female, Balb/c, mouse, plasma, po, 30 mg/kg, 2 hr, read-out: Plasma concentration Mean): 322 ng/mL | concentration at 4 hr (female, Balb/c, mouse, plasma, po, 30 mg/kg, 4 hr, read-out: Plasma concentration Individual): 193 ng/mL | concentration at 4 hr (female, Balb/c, mouse, plasma, po, 30 mg/kg, 4 hr, read-out: Plasma concentration Mean): 159 ng/mL | concentration at 8 hr (female, Balb/c, mouse, plasma, po, 30 mg/kg, 8 hr, read-out: Plasma concentration Mean): 32.6 ng/mL | AUC(0-inf) (mouse, plasma): 1720 ng·h/mL | AUC(0-t) (mouse, plasma): 1640 ng·h/mL | Cmax (mouse, plasma): 470 ng/mL | MRT inf (mouse, plasma): 2.76 h | MRT last (mouse, plasma): 2.35 h | Tmax (mouse, plasma): 1 h | half-life (mouse, plasma): 1.81 h
SMILES: CC(C)Cc1sc(Nc2ncc(-c3cccs3)cc2C(=O)O)nc1C1=CCOCC1 [Compound I-1]
